From patent publication US8946247B2, “Quinazoline carboxamide azetidines” (Merck Patent GmbH, priority 2010, dated 2015)
pIC50: −log10 of the molar value.

How the values were obtained:
P70S6K (T412E mutant) = target: T1, P70S6K (T412E mutant) (Homo sapiens, UniProt P23443, T412E); assay: p70S6K Enzyme Assay; type: biochemical; conditions: 24 μM ATP, 90 min at 25° C., Caliper mobility shift
T1 construct: purchased Millipore
Protocol: p70S6K inhibitor compounds were diluted and plated in 96 well plates. A reaction mixture including the following components were then added to the compound plate to initiate the enzyme reaction; P70S6K (3 nM, T412E mutant, Millipore) was mixed with 24 μM ATP in an assay buffer containing 100 mM Hepes (pH 7.5), 5 mM MgCl2, 1 mM DTT, 0.015% Brij and 1 μM of the substrate peptide FITC-AHA-AKRRRLSSLRA-OH (derived from the S6 ribosomal protein sequence, FITC=fluorescein isothiocyanate, AHA=6-aminohexanoic acid). The reaction was incubated for 90 min at 25° C., before the addition of 10 mM EDTA to stop the reaction. The proportion of substrate and product (phosphorylated) peptide was analysed on a Caliper Life Sciences Lab Chip 3000, using a pressure of −1.4 psi, and upstream and downstream voltages of −3000 and −700 respectively. Product peaks were resolved before substrate peaks on the resulting chromatograms.
To assess the inhibitory potential of the compounds, IC50-values were determined, as shown in Chemical Synthesis section above.

pS6 MDA-MB-468 = assay: Cellular Activity Assay (phospho-S6 in MDA-MB-468 cells); type: cell-based; conditions: Homo sapiens, 2 hr compound incubation, percent pS6-positive cells; for IC50: head printed in uM
Protocol: MDA-MB-468 cells were grown in DMEM containing glutamine supplemented with 10% Fetal Bovine Serum (FBS) and 1× antibiotics. Cells were maintained by splitting 1:3 twice a week.
For the assay, cells were plated the evening before at a density of 4000 cells per well in black polyD lysine coated 384 well plates. Cells were incubated overnight (16 to 20 hours) in growth media. Compounds at an appropriate concentration were added to the wells and incubated for 2 hr. Controls included: i) no primary, ii) rabbit isotype, iii) propidium iodide (red) only and iv) anti-phospho-S6 antibody alone (green only). Cells were then fixed in 4% paraformaldehyde for 15-20 minutes at room temperature, then washed 3×80 ul with PBS.
50 ul 10% normal goat serum (NGS) with 0.2% triton X 100 in PBS were added and incubated for 30 to 60 minutes at room temperature. Anti-phospho-S6 antibody was diluted 1:800 2% with NGS in 0.2% TritonX-100 and 30 ul added to appropriate wells. The wells were incubated overnight at 4 degrees Celsius.
Then the wells were washed with 3×80 uL PBS. The secondary green fluorescence labeled antibody (Alexa Fluor® 488 F(ab′)2 fragment goat Anti-rabbit IgG (H+L)), was diluted 1:1500 in 2% NGS with 0.2% TritonX-100, and 30 ul were added to the appropriate wells which were then incubated in the dark at room temperature for 60 minutes. Then they were washed with 4×80 ul PBS. Propidium iodide (1.5 mM stock) was diluted 1:1000 in PBS, and 50 ul were added to the appropriate wells and incubated for 30 minutes at room temperature in the dark. Propidium iodide was not washed out. Plates were read on the Acumen Explorer.
Red and green cell populations were determined using controls. The number of green cells (pS6) and total number of cells (red) were then counted and the percentage of green cells was calculated. Percent positive cell data was plotted on a log scale against concentration of compounds and IC50 values were calculated from dose response curves.

Aurora B = target: T2, Aurora B (Homo sapiens, UniProt Q96GD4); assay: Aurora B Kinase Assay; type: biochemical; conditions: GST-Aurora B (1-344), 10 uM ATP, 90 min at 25 C
T2 construct: GST-Aurora B (1-344 amino acids); GST (N); purchased Carna Biosciences 05-102
Protocol: To measure inhibitor activity of Aurora B inhibitors in the Caliper Life Sciences LC3000, a TTP Mosquito liquid handling instrument was used to place 0.25 ul of the appropriate concentration of inhibitor in 100% DMSO (for a dose response curve calculation) into each well of a 384-well plate. To this reaction components was added to a final volume of 25 ul: • 0.1 ng/ul GST-Aurora B (1-344 amino acids), (Carna Biosciences 05-102. N-terminal GST fusion with His tagged INCEP, accession number Q96GD4). • 10 uM ATP (Fluka, 02055) • 1 mM DTT (Sigma, D0632) • 1 mM MgCl2 (Sigma, M1028) • 1 uM substrate peptide (sequence FITC-LRRASLG-(CONH2), synthesized by Tufts Peptide Synthesis service. • 100 mM HEPES pH 7.5 (Calbiochem, 391338) • 0.015% Brij-35 (Sigma, B4184)
(§1) The reaction was incubated for 90 min at 25 C, and then stopped by the addition of 70 ul of Stop buffer (100 mM HEPES pH 7.5, 0.015% Brij-35, 10 mM EDTA (Sigma, E7889)).
The plate was read on a Caliper LC 3000 in an Off-Chip mobility shift assay format, using the following parameters for a 12-sipper chip: screening pressure −1.8 psi, upstream voltage −2700, downstream voltage −1000. These conditions caused unphosphorylated substrate and phosphorylated product peptide to resolve as separate peaks allowing direct measurement of percentage of conversion of substrate to product. The percent conversion was plotted against concentration of inhibitor to produce a sigmoidal dose response curve, from which an IC50 was calculated using XLFit for Microsoft Excel.

Akt1 = target: T3, Akt1 (Homo sapiens, UniProt P31749); assay: AKT/PKB Kinase Assay; type: biochemical; conditions: His-AKT (Full Length), 160 uM ATP, 90 min at 25 C
T3 construct: 0.1 ng/ul His-AKT (Full Length), (Invitrogen, Part #P2999, Lot #641228C); His; purchased Invitrogen P2999
Protocol: In order to measure AKT inhibition in the Caliper Life Sciences LC3000, a TTP Mosquito liquid handling instrument was used to place 125 nl of the appropriate concentration of inhibitor in 100% DMSO (for a dose response curve calculation) into each well of a 384-well plate. To this reaction components were added to a final volume of 12.5 ul: • 0.1 ng/ul His-AKT (Full Length), (Invitrogen, Part #P2999, Lot #641228C) • 160 uM ATP (Fluke, 02055) • 1 mM DTT (Sigma, D0632) • 1 mM MgCl2 (Sigma, M1028) • 1 uM substrate peptide (sequence FITC-AHA-GRPRTSSFAEG-NH2), synthesized by Tufts Peptide Synthesis service. • 100 mM HEPES pH 7.5 (Calbiochem, 391338) • 0.015% Brij-35 (Sigma, B4184)
as §1
The plate was read on a Caliper LC 3000 in an Off-Chip mobility shift assay format, using the following parameters for a 12-sipper chip: screening pressure −2.3 psi, upstream voltage −500, and downstream voltage −3000.
These conditions cause unphosphorylated substrate and phosphorylated product peptide to resolve as separate peaks allowing direct measurement of percentage of conversion of substrate to product. The percent conversion was plotted against concentration of inhibitor to produce a sigmoidal dose response curve, from which an IC50 was calculated.

T1 sequence (P23443 1-421 T412E limits assumed): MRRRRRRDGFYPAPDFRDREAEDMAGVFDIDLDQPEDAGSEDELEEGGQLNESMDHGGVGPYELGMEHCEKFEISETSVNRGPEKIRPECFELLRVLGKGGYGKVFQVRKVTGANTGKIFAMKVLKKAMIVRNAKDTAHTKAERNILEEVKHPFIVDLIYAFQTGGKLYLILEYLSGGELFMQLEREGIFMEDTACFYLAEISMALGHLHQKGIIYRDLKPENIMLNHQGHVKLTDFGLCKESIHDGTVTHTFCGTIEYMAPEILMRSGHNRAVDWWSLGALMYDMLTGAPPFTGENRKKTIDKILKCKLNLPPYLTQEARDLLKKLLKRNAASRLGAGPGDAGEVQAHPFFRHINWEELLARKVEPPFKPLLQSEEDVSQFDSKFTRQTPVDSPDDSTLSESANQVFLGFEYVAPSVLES
T3 sequence (P31749 whole entry): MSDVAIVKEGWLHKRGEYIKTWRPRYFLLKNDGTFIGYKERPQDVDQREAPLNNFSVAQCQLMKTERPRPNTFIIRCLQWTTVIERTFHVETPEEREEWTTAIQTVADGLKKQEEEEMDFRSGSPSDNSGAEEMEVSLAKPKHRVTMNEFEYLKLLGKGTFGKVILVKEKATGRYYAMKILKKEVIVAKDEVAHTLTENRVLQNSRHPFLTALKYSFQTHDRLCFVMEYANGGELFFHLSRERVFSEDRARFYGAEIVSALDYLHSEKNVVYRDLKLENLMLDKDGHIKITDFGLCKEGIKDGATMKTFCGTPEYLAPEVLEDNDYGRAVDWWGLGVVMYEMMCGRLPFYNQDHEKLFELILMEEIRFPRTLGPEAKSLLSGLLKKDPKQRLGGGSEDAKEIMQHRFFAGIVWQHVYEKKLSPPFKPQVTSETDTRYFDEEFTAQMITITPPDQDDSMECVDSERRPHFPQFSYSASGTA
T2 sequence (Q96GD4 whole entry, the tested form may be a part): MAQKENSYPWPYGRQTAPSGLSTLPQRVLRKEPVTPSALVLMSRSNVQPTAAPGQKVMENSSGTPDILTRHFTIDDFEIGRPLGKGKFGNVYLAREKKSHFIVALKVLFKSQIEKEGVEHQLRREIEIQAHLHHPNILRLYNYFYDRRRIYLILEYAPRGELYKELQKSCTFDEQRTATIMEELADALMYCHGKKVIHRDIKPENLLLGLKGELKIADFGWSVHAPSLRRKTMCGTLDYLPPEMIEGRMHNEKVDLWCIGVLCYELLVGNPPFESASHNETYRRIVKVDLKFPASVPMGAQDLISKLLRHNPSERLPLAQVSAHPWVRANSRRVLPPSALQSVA
T2 sequence (Q9NQS7 803-918 partner limits assumed): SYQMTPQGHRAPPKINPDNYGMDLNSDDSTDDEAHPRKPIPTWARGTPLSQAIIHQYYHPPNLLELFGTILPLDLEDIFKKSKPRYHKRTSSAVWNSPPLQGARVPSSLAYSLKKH

Compound	pIC50 (P70S6K (T412E mutant))	pIC50 (pS6 MDA-MB-468)	pIC50 (Aurora B)	pIC50 (Akt1)	IC50 (pS6 MDA-MB-468) [µM]
NC(=O)c1cccc2c(N[C@H](CN3CCC3)c3cc(F)ccc3Cl)ncnc12 [Example 25, 4-[(S)-2-Azetidin-1-yl-1-(2-chloro-5-fluoro-phenyl)-ethylamino]-quinazoline-8-carboxylic acid amide]	8.51	6.31	6.59	6.43	
COc1c(F)cc([C@@H](CN2CCC2)Nc2ncnc3c(C(N)=O)cccc23)cc1F [Example 38, 4-[(S)-2-Azetidin-1-yl-1-(3,5-difluoro-4-methoxyphenyl)-ethylamino]-quinazoline-8-carboxylic acid amide]	8.74	6.95	6.55	6.85	
CC(C)c1ccc([C@@H](CN2CCC2)Nc2ncnc3c(C(N)=O)cccc23)cc1 [Example 34, 4-[(S)-2-Azetidin-1-yl-1-(4-isopropylphenyl)-ethylamino]-quinazoline-8-carboxylic acid amide]	9.10	7.20			
NC(=O)c1cccc2c(N[C@H](CN3CC(F)C3)c3cccc(Cl)c3)ncnc12 [Example 22, 4-[(S)-2-(3-Fluoro-azetidin-1-yl)-1-(3-chlorophenyl)-ethylamino]-quinazoline-8-carboxylic acid amide]	8.62	6.49		7.14	
NC(=O)c1cccc2c(N[C@H](CN3CCC3)c3ccc(OC(F)(F)F)c(Cl)c3)ncnc12 [Example 28, 4-[(S)-2-Azetidin-1-yl-1-(3-chloro-4-trifluoromethoxy-phenyl)-ethylamino]-quinazoline-8-carboxylic acid amide]	8.62	7.21	6.16		
NC(=O)c1ccc([C@@H](CN2CCC2)Nc2ncnc3c(C(N)=O)cccc23)cc1 [Example 35, 4-[(S)-2-Azetidin-1-yl-1-(4-carbamoylphenyl)-ethylamino]-quinazoline-8-carboxylic acid amide]	8.07	6.24			
NC(=O)c1cccc2c(N[C@H](CN3CCC3)c3ccc(Cl)c(F)c3)ncnc12 [Example 29, 4-[(S)-2-Azetidin-1-yl-1-(4-chloro-3-fluoro-phenyl)-ethylamino]-quinazoline-8-carboxylic acid amide]	8.80	7.72		8.11	

Other lines, results leading:

pIC50 (P70S6K (T412E mutant))	pIC50 (pS6 MDA-MB-468)	pIC50 (Aurora B)	pIC50 (Akt1)	IC50 (pS6 MDA-MB-468) [µM]	Compound
9.00	7.19	7.27			NC(=O)c1cc(F)cc2c(N[C@H](CN3CCC3)c3ccc(Cl)c(F)c3)ncnc12 [Example 51, 4-[(S)-2-Azetidin-1-yl-1-(4-chloro-3-fluoro-phenyl)-ethylamino]-6-fluoro-quinazoline-8-carboxylic acid amide]
8.52	6.41	6.92	7.96		CC1CCN1C[C@@H](Nc1ncnc2c(C(N)=O)cccc12)c1ccc(F)c(C(F)(F)F)c1 (stereo partly drawn) [Example 48, 4-[(S)-1-(4-Fluoro-3-trifluoromethyl-phenyl)-2-(2-methyl-azetidin-1-yl)-ethylamino]-quinazoline-8-carboxylic acid amide]
6.89		< 9.00		> 10	COc1cc([C@@H](CN2CCC2)Nc2ncnc3c(C(N)=O)cccc23)cc(F)c1F [Example 40, 4-[(S)-2-Azetidin-1-yl-1-(3,4-difluoro-5-methoxyphenyl)-ethylamino]-quinazoline-8-carboxylic acid amide]
8.40	6.32	7.16	7.68		COc1cc([C@@H](CN2CCC2)Nc2ncnc3c(C(N)=O)cccc23)ccc1F [Example 43, 4-[(S)-2-Azetidin-1-yl-1-(4-fluoro-3-methoxy-phenyl)-ethylamino]-quinazoline-8-carboxylic acid amide]
7.38	< 8.00	6.47			NC(=O)c1cccc2c(N[C@H](CN3CC(F)(F)C3)c3ccc(Cl)cc3)ncnc12 [Example 32, 4-[(S)-1-(4-Chloro-phenyl)-2-(3,3-difluoro-azetidin-1-yl)-ethylamino]-quinazoline-8-carboxylic acid amide]
8.11	6.99	7.39	7.64		NC(=O)c1cccc2c(N[C@H](CN3CCC3)c3ccc(F)cc3)ncnc12 [Example 3, 4-[(S)-2-Azetidin-1-yl-1-(4-fluorophenyl)-ethylamino]-quinazoline-8-carboxylic acid amide]
8.34		6.68			NC(=O)c1cccc2c(N[C@H](CN3CC(O)C3)c3ccc(F)c(F)c3)ncnc12 [Example 33, 4-[(S)-1-(3,4-Difluoro-phenyl)-2-(3-hydroxy-azetidin-1-yl)-ethylamino]-quinazoline-8-carboxylic acid amide]
6.40				> 10	CC(C)Oc1ccc([C@@H](CN2CCC2)Nc2ncnc3c(C(N)=O)cccc23)cc1 [Example 36, 4-[(S)-2-Azetidin-1-yl-1-(4-isopropoxyphenyl)-ethylamino]-quinazoline-8-carboxylic acid amide]
7.96	5.51				NC(=O)c1cccc2c(N[C@H](CN3CCC3)c3ccccc3)ncnc12 [Example 21, 4-[(S)-2-Azetidin-1-yl-1-phenyl-ethylamino]-quinazoline-8-carboxylic acid amide]
